According to publication PMC11695783 (Frontiers in Pharmacology, 2024):
In brackets after ≈: the same amount, converted by molar mass. Several values for one entry are separate records, joined by “and”; a condition that tells them apart may be missing. Equal entries are not always repeated. Structures can show the parent of a compound that is named as a salt.

Key:
CXCL1 = CXCL1 in BALF of M. pneumoniae-infected mice (ELISA); type: in vivo, BALB/c mice; conditions: tiamulin 40 mg/kg PO (fumarate soluble powder), individual mice
Description: (§1) Adult BALB/c mice (20–22 g) were divided into a control group, a positive group, and compound 16C groups at low (20 mg/kg), medium (40 mg/kg), and high-dose (80 mg/kg) levels and oral and intramuscular tiamulin treatment groups (40 mg/kg). We formulated the above dose range based on the dose at which tiamulin was approved for injection (10–20 mg/kg) and the dose previously reported (45 mg/kg) ([EMA, 1999]; [Xiao et al., 2016]). In summary, we selected similar doses for compound 16C in vivo study. 40 mg/kg was used as an intermediate value, one-half of it as a low dose, and two times of it as a high dose. To prepare the challenge solution, logarithmic phase culture suspensions were centrifuged at 1700 g for 10 min, and the pellets were suspended in sterile PBS to obtain 1 × 10^9 CFU/mL. Before the challenge, mice were anesthetized with tribromoethanol (250 mg/kg, IP). Mice in the control groups were intratracheally inoculated with sterile PBS, whereas mice in the other groups were intratracheally challenged with 50 μL (1 × 10^9 CFU/mL) M. pneumoniae suspension once a day for 3 days. Compound 16C and tiamulin (tiamulin-IM group) dissolved using the method mentioned in pharmacokinetic studies, and the tiamulin fumarate soluble powder was dissolved in ddH2O for oral administration. After the final challenge, antibiotics were administered at low, medium, and high-dose levels (see above) at 10 a.m. and 10 p.m. daily for 4 consecutive days. Normal saline containing 5% DMSO and 5% Tween-80 was administered as control and positive groups by thigh intramuscular injection. To compare the efficacy of compound 16C and tiamulin under the same route of administration, we used the original tiamulin for intramuscular administration in the same formulation. On the other hand, tiamulin fumarate soluble powder, approved for oral administration to treat animal mycoplasma diseases in China, was administered to mice by gavage. Based on a clinical study of lefamulin in community-acquired bacterial pneumonia (CABP), subjects were administered twice a day and the 96 ± 24 h of starting treatment was an essential point for early clinical response (ECR) ([Paukner et al., 2022]). We therefore stopped treatment at 96 h and sampled at 192 h to explore whether the disease worsened after cessation of treatment. Bronchoalveolar lavage fluid (BALF) and lungs were collected at 0, 96, 192 h (Samples of 0 h were collected before starting treatment, and mice were fed ad libitum without drug treatment during 96–192 h) after the first dose, BALF for cytokine and cytological analysis and lung for histopathological evaluation.
(§2) Bronchoalveolar lavage was performed according to a standardized method ([Van Hoecke et al., 2017]). BALF was obtained following infusion of 0.5 mL PBS via tracheal cannulation into the lung twice (total 1 mL), and 200 µL was used for mycoplasma counts. The remaining BALF was centrifuged at 300 g for 10 min to separate the debris. The supernatants were stored at −80°C, and the debris was resuspended in the same volume of PBS containing red blood cell lysis buffer. A hemocytometer was used to count total cell numbers in BALF, and cell smears (Diff-Quik staining) were prepared to calculate the percentages of neutrophils, macrophages, and lymphocytes. IFN-γ, TNF-α, and CXCL1 levels in BALF samples were assessed using commercial ELISA kits using guidelines recommended by the manufacturer (Elabscience, Wuhan, China). Parallel data for each experimental group at each time point were obtained from six different mice.

Mycoplasma pneumoniae = assay: In vivo pharmacodynamic study: Mycoplasma pneumoniae loads in BALF of infected mice; parameters: species or system BALB/c mice; conditions: tiamulin 40 mg/kg PO (fumarate soluble powder); for MPcounts in BALF (AV): group AV; for MPcounts in BALF: individual mice
Description: as §1, §2

IFN-γ = IFN-γ in BALF of M. pneumoniae-infected mice (ELISA); type: in vivo, BALB/c mice; conditions: tiamulin 40 mg/kg PO (fumarate soluble powder); for IFN-γ in BALF (AV): group AV; for IFN-γ in BALF: individual mice
Description: as §1, §2

TNF-α = TNF-α in BALF of M. pneumoniae-infected mice (ELISA); type: in vivo, BALB/c mice; conditions: tiamulin 40 mg/kg PO (fumarate soluble powder), individual mice
Description: as §1, §2

[1] = test system: Mycoplasma pneumoniae-infected mice (lung tissue); assay: Histopathological assessment of lung tissue (HPS, response and recovery rates) in M. pneumoniae-infected mice; type: in vivo, BALB/c mice; parameters: HPS value (mean) / HPS: scale not given here; conditions: tiamulin 40 mg/kg PO (fumarate soluble powder); for HPS: individual mice
Description: as §1
Lung tissues were collected at 0, 96, and 192 h following drug administration. Lungs were collected from 6 mice in each group at 96 h and 13–15 mice in each group at 192 h. In addition, the lungs of 8 untreated infected mice were taken at 0 h as initial controls. Lung tissues were fixed in 4% paraformaldehyde, and whole-mount sections of paraffin-embedded lungs were stained with hematoxylin and eosin (H&E). The histopathologic score (HPS) was determined according to published protocols by a single pathologist who was unaware of the treatment status and groups of the animals ([Cimolai et al., 1992]). The HPS was based on individual grading of peribronchiolar/bronchial infiltrate, bronchiolar/bronchial luminal exudate, perivascular infiltrate, and parenchymal pneumoniae.

[2] = test system: Mycoplasma pneumoniae strain M129 (ATCC 29342); assay: Susceptibility assay (broth microdilution MIC, MBC); type: cell-based
Description: (§3) Mycoplasma pneumoniae strain M129 (ATCC 29342) was obtained from American Type Culture Collection (Manassas, VA, United States) and cultured at 37°C in the presence of 5% CO2 in the modified SP-4 liquid medium (pH 7.4) containing 2.1% (w/v) CM1166 mycoplasma broth base medium (Oxoid, Hants, United Kingdom), 20% (v/v) fetal bovine serum (FBS, Bioexplorer, CO, United States), 0.4% yeast extract (Oxoid), 0.55% (w/v) CMRL 1066 w/L-glutamine culture media powder (MyBioSource, San Diego, CA, United States), 1% D-glucose (Macklin) and 0.004% phenol red (Macklin). […] The solid medium is based on the above formula with the addition of 1% agar, and the characteristic fried egg-like colonies were used for experiments following incubation for 7 d on plates.
The broth microdilution MIC procedure was performed according to standardized methods for microdilution susceptibility testing of mycoplasma species ([Waites et al., 2012]). […] The concentration of organisms should be determined to approximately 10^6 CFU/mL prior to inoculation into 96-well plates. Due to the action of phenol red, the acidic metabolites of microbial growth can turn the medium yellow. […] The MBC assays were performed based on MICs following endpoint reading and the liquid in the high-concentration wells was removed for bacterial counting.

[3] = test system: Mycoplasma pneumoniae strain M129 (ATCC 29342); assay: Time-kill curves; type: cell-based; parameters: M. pneumoniae count in time-kill curve: unit not given here
Description: as §3
The tubes were incubated at 37°C in 5% CO2 for 72 h, and 200 µL of the culture was removed every 12 h for 10-fold serial dilutions. The diluted cultures were plated on plates for further culture and counted after 7 d. The experiment was repeated three times.

SMILES: C=C[C@]1(C)C[C@@H](OC(=O)CSCCN(CC)CC)[C@]2(C)[C@H](C)CC[C@]3(CCC(=O)[C@H]32)[C@@H](C)[C@@H]1O [Tiamulin-PO, Tiamulin fumarate, reference compound]
- CXCL1 in BALF (CXCL1; 96 h): 47.9583 pg/mL and 40.7995 pg/mL and 44.8333 pg/mL and 37.1973 pg/mL and 31.7608 pg/mL and 43.0428 pg/mL
- CXCL1 in BALF (CXCL1; 192 h): 52.4056 pg/mL and 49.740 pg/mL and 60.3659 pg/mL and 36.7459 pg/mL and 45.7272 pg/mL
- MPcounts in BALF (AV) (Mycoplasma pneumoniae; 96 h): 4.578 Log10CFU/mL
- MPcounts in BALF (Mycoplasma pneumoniae; 96 h): 4.372 Log10CFU/mL and 4.349 Log10CFU/mL and 5.68 Log10CFU/mL and 4.443 Log10CFU/mL and 4.274 Log10CFU/mL and 4.354 Log10CFU/mL
- MPcounts in BALF (AV) (Mycoplasma pneumoniae; 192 h): 4.3846 Log10CFU/mL
- MPcounts in BALF (Mycoplasma pneumoniae; 192 h): 4.0302 Log10CFU/mL and 4.805 Log10CFU/mL and 4.331 Log10CFU/mL and 4.53 Log10CFU/mL and 4.4765 Log10CFU/mL and 4.136 Log10CFU/mL
- IFN-γ in BALF (AV) (IFN-γ; 96 h): 32.2599 pg/mL
- IFN-γ in BALF (IFN-γ; 96 h): 34.8842 pg/mL and 17.3704 pg/mL and 63.2217 pg/mL and 29.659 pg/mL and 25.3118 pg/mL and 23.1122 pg/mL
- IFN-γ in BALF (AV) (IFN-γ; 192 h): 34.0801 pg/mL
- IFN-γ in BALF (IFN-γ; 192 h): 37.2747 pg/mL and 51.8224 pg/mL and 27.2214 pg/mL and 28.4425 pg/mL and 30.8711 pg/mL and 28.8485 pg/mL
- TNF-α in BALF (TNF-α; 96 h): 13.0598 pg/mL and 17.5743 pg/mL and 24.463 pg/mL and 20.81 pg/mL and 21.310 pg/mL and 10.7269 pg/mL
- TNF-α in BALF (TNF-α; 192 h): 8.7059 pg/mL and 12.3017 pg/mL and 9.398 pg/mL and 5.239 pg/mL and 5.021 pg/mL and 15.24 pg/mL
- HPS ([1]; 96 h): 2.5 and 4 and 1 and 3
- HPS ([1]; 192 h): 1.5 and 2 and 1 and 8 and 0 and 3 and 4
- Recovery ([1]; from HPS at 192 h): 6.67%
- Response ([1]; from HPS at 192 h): 86.67%

SMILES: CN(C)[C@@H]1C(O)=C(C(N)=O)C(=O)[C@@]2(O)C(O)=C3C(=O)c4c(O)cccc4[C@@](C)(O)[C@H]3C[C@@H]12 [tetracycline]
- MBC [2]: 3.2 µg/mL (≈ 7.2 µM)
- M. pneumoniae count in time-kill curve ([3]; 1×MIC, time 0): 6.522
- M. pneumoniae count in time-kill curve ([3]; 1×MIC, time 12): 6.243
- M. pneumoniae count in time-kill curve ([3]; 1×MIC, time 24): 5.358
- M. pneumoniae count in time-kill curve ([3]; 1×MIC, time 36): 5.0751
- M. pneumoniae count in time-kill curve ([3]; 1×MIC, time 48): 3.623
- M. pneumoniae count in time-kill curve ([3]; 1×MIC, time 60): 4.011
- M. pneumoniae count in time-kill curve ([3]; 1×MIC, time 72): 4.04
- reduction of bacterial counts ([3]; 1–2×MIC, 72 h): 2.38–2.48 log10 CFU/mL
- M. pneumoniae count in time-kill curve ([3]; 2×MIC, time 0): 6.522
- M. pneumoniae count in time-kill curve ([3]; 2×MIC, time 12): 5.562
- M. pneumoniae count in time-kill curve ([3]; 2×MIC, time 24): 5.13
- M. pneumoniae count in time-kill curve ([3]; 2×MIC, time 36): 4.505
- M. pneumoniae count in time-kill curve ([3]; 2×MIC, time 48): 3.395
- M. pneumoniae count in time-kill curve ([3]; 2×MIC, time 60): 3.925
- M. pneumoniae count in time-kill curve ([3]; 2×MIC, time 72): 4.141
- M. pneumoniae count in time-kill curve ([3]; 4×MIC, time 0): 6.522
- M. pneumoniae count in time-kill curve ([3]; 4×MIC, time 12): 5.527
- M. pneumoniae count in time-kill curve ([3]; 4×MIC, time 24): 4.565
- M. pneumoniae count in time-kill curve ([3]; 4×MIC, time 36): 4.182
- M. pneumoniae count in time-kill curve ([3]; 4×MIC, time 48): 3.523
- M. pneumoniae count in time-kill curve ([3]; 4×MIC, time 60): 3.499
- M. pneumoniae count in time-kill curve ([3]; 4×MIC, time 72): 3.057
- M. pneumoniae count in time-kill curve ([3]; 8×MIC, time 0): 6.522
- M. pneumoniae count in time-kill curve ([3]; 8×MIC, time 12): 5.0382
- M. pneumoniae count in time-kill curve ([3]; 8×MIC, time 24): 4.431
- M. pneumoniae count in time-kill curve ([3]; 8×MIC, time 36): 4.11
- M. pneumoniae count in time-kill curve ([3]; 8×MIC, time 48): 3.568
- M. pneumoniae count in time-kill curve ([3]; 8×MIC, time 60): 3.5
- M. pneumoniae count in time-kill curve ([3]; 8×MIC, time 72): 3.462
- M. pneumoniae count in time-kill curve ([3]; 16×MIC, time 0): 6.522
- M. pneumoniae count in time-kill curve ([3]; 16×MIC, time 12): 5.216
- M. pneumoniae count in time-kill curve ([3]; 16×MIC, time 24): 4.191
- M. pneumoniae count in time-kill curve ([3]; 16×MIC, time 36): 3.827
- M. pneumoniae count in time-kill curve ([3]; 16×MIC, time 48): 3.742
- M. pneumoniae count in time-kill curve ([3]; 16×MIC, time 60): 3.715
- M. pneumoniae count in time-kill curve ([3]; 16×MIC, time 72): 3.031
- M. pneumoniae count in time-kill curve ([3]; 32×MIC, time 0): 6.522
- M. pneumoniae count in time-kill curve ([3]; 32×MIC, time 12): 4.677
- M. pneumoniae count in time-kill curve ([3]; 32×MIC, time 24): 4.038
- M. pneumoniae count in time-kill curve ([3]; 32×MIC, time 36): 3.597
- M. pneumoniae count in time-kill curve ([3]; 32×MIC, time 48): 3.571
- M. pneumoniae count in time-kill curve ([3]; 32×MIC, time 60): 3.497
- M. pneumoniae count in time-kill curve ([3]; 32×MIC, time 72): 3.078
- M. pneumoniae count in time-kill curve ([3]; 64×MIC, time 0): 6.522
- M. pneumoniae count in time-kill curve ([3]; 64×MIC, time 12): 4.323
- M. pneumoniae count in time-kill curve ([3]; 64×MIC, time 24): 4.306
- M. pneumoniae count in time-kill curve ([3]; 64×MIC, time 36): 3.779
- M. pneumoniae count in time-kill curve ([3]; 64×MIC, time 48): 3.079
- M. pneumoniae count in time-kill curve ([3]; 64×MIC, time 60): 3.41
- M. pneumoniae count in time-kill curve ([3]; 64×MIC, time 72): 3.079
- concentration at which bactericidal effect was achieved ([3]; static time-kill, 72 h): ≥ 4 × MIC
